# Test: Human HepG2 cell viability assay in 384 well format
# Type: toxicity, cell-based
# Set-up: dose 125 nL, time 70.5 hour; cytotoxicity at 70.5 h: concentration not given beside the values
# Conditions: HepG2 cells, read-out: Inhibition
row,SMILES,cytotoxicity at 70.5 h [%]
1,CC(C)c1cc(Br)ccc1NC(=O)NCC(O)CO (stereo not drawn),-3.27
2,CN1C(Cn2cccn2)C[C@@H]2CN(Cc3ccccn3)CC[C@@H]21 (stereo partly drawn),-10.5
3,COC(C)(C)C(=O)N[C@H]1CN(c2nccnc2N(C)C)C[C@@H]1C(C)C,-5.98
4,Cc1cc2cccc(C(=O)N3CCOC4(CNCCOC4)C3)c2o1 (stereo not drawn),32.7
5,Cc1cccc(N(CCC(N)=O)C(=O)c2ccnc(C)n2)c1,-13.8
6,Cc1cc(Cl)c(C)c(S(=O)(=O)N2CCN(Cc3ccncc3)CC2)c1Cl,-25.9
7,O=C(CN(CC(O)c1ccc(F)cc1)C1CC1)NC(C1CC1)C1CC1 (stereo not drawn),-90.6
8,CC[C@H](CO)NC(=O)c1coc(COc2cccc(F)c2F)n1,9.55
9,Cc1cnn(CC(=O)N2CCC3(CCC(=O)N(C4CCCC4)C3)CC2)c1,-2.24
10,CN(CC(=O)N1CCCC1)C(=O)c1cccn1CCc1ccccc1,-7.1
11,CCc1ccc(CN2CCN(c3ccc(Cl)nn3)CC2)nc1,-4.56
12,O=C(CCCOc1ccc(F)cc1F)N1CCCC1Cn1cccn1 (stereo not drawn),1.98
13,COc1cc(NC2CCCN(c3ncccn3)C2)cc(OC)c1 (stereo not drawn),3.49
14,O=S(=O)(CCN1CCCC1Cn1cncn1)c1ccccc1 (stereo not drawn),-1.96
15,COc1cc(C(C)NCc2ncccc2C)ccc1SC(F)F (stereo not drawn),52.4
16,CCn1ccnc1CN1CCN(c2ncnc3ccsc23)CC1C (stereo not drawn),0.44
17,CC(=O)NC1CCN(c2nc(N)nc3c2CCCC3)C1 (stereo not drawn),-8.84
18,Cn1cc(CCC(=O)N2CCCN(c3ncccc3C#N)CC2)cn1,35.5
19,CS(=O)(=O)NCCNC(=O)NC1(c2ccc(Cl)cc2)CCC1,16.5
20,COCCN(C)C[C@@H]1CN(C(=O)c2c(F)ccc(OC)c2F)C[C@@H]1CO,47.7
21,COCC1c2c(cnn2CC2CC2)CCN1Cc1ccc(OC)cc1 (stereo not drawn),49.3
22,O=C(CCC1CCCO1)NCc1ccnc(-n2cccn2)c1 (stereo not drawn),23.5
23,c1ccc(CN2CCC3(CC2)CCN(c2ccccn2)C3)nc1,-10.3

row,SMILES,cytotoxicity at 70.5 h [%]
1,CN(C)c1ncc(I)c(C2CCCCN2S(C)(=O)=O)n1 (stereo not drawn),-3.68
2,COc1ccccc1-c1cccc(C2CCCN(C3CCOCC3)C2)n1 (stereo not drawn),22.7
3,Cc1nc(CN2C(=O)CC[C@@H]3[C@H]2CCN3C(=O)c2ccc[nH]2)cs1,-7.13
4,CN(C)S(=O)(=O)N1CC[C@]2(O)CCN(CCCc3cccnc3)C[C@@H]2C1,1.31
5,FC(F)(F)c1cccc(CNc2nccc(C(F)(F)F)n2)c1,-3.61
6,CSCC1CCCN(c2ncnc3oc(C)nc23)C1 (stereo not drawn),-9.81
7,CCCOC(=O)C(C)Sc1nnnn1C1CCOCC1 (stereo not drawn),-2.83
8,O=C(NCC1CCCO1)c1cc(COc2ccccc2F)[nH]n1 (stereo not drawn),-3.44
9,COc1ccc(Cl)cc1C(=O)NC(CC(=O)O)c1cccs1 (stereo not drawn),-11
10,Cc1cc(C(=O)NCc2cccnc2N(C)C)c(C)o1,14.3
11,Cn1ccc(C(=O)NC2CCC23CCN(Cc2ccc(F)cc2)CC3)c1 (stereo not drawn),-0.822
12,CN(C)CCN(Cc1ccccc1)C(=O)C1=NNC(=O)CC1,-6.1
13,COc1ccccc1NC(=O)NCC(O)(c1ccccc1)C1CC1 (stereo not drawn),20.2
14,COc1ccnc(N2CCN(C(=O)CCc3nccs3)CC2)n1,-10.9
15,COCC(=O)NCCC(=O)N1CCN(S(=O)(=O)c2cccc(Br)c2)CC1,-2.7
16,CN(C)C(=O)NC1COC2(CCN(Cc3ccccc3)CC2)C1 (stereo not drawn),27.7
17,CCn1nc(C(=O)N2CCCC(n3cncn3)C2)ccc1=O (stereo not drawn),-14.8
18,NC(=O)c1cnc(NC(=O)CCc2ccco2)c(Cl)c1,-2.14
19,CN(Cc1ccco1)C(=O)NCc1ccnc(SC(C)(C)C)c1,-8.67
20,CCc1nc(C)c(C(=O)NCCNc2ncnc3sccc23)s1,4.06
21,O=C(CCc1ccccc1)NCC1CCN(Cc2cccs2)CC1,-8.06
22,O=C(CCC(=O)N1CCc2[nH]c3ccccc3c2C1)NCc1ccco1,-8.42
23,Cc1ccnc(OC[C@@]23CCO[C@@H]2CCN(c2ncc(F)cn2)C3)n1,-6.92

row,SMILES,cytotoxicity at 70.5 h [%]
1,COc1ccc(OCc2nc(C(=O)NCCN3CCOCC3)co2)cc1,-5.59
2,COc1ccc(CNC(=O)Nc2ccc(S(=O)(=O)C(F)F)cc2)cc1,8.9
3,OCCn1nccc1C1CCN(CCOc2ccc(Cl)cc2)CC1,-1.15
4,c1csc(-c2noc(CNCCn3cccn3)n2)c1,-4.45
5,CN(c1ncnc2c1cnn2C)C1CCCN(c2cccnn2)C1 (stereo not drawn),0.765
6,CCN1CCCc2cc(CN3CCc4nc(C)[nH]c(=O)c4C3)ccc21,-0.248
7,CCCC(=O)N(C)CC(=O)Nc1ccc(Br)cn1,-2.34
8,Cc1nc(C2CCN(S(C)(=O)=O)CC2)nc(N2CCCC2)c1C,-3.13
9,Cc1ncnc2c1CCN(C(=O)Cc1cccc(F)c1)CC2,0.979
10,CCn1ncnc1C(C)NC(=O)C1CCN(Cc2ccco2)CC1 (stereo not drawn),-0.537
11,COc1cc(CCC(=O)N2CCC(c3cc4ncc(C)nc4[nH]3)C2)on1 (stereo not drawn),19.5
12,CN(C)C(=O)N1CCN(C(=O)c2ccn3ccnc3c2)CC1,-3.58
13,CN(C)CC(=O)N1CCC2(CCN(Cc3ccccn3)C2=O)C1 (stereo not drawn),-22.9
14,CSCCCN1C[C@H](NC(=O)c2ccc(CO)cc2)[C@@H](C2CC2)C1,-9.41
15,Cc1csc(C2CCCN(C(=O)c3ccc(=O)n(C)n3)C2)n1 (stereo not drawn),-9.44
16,N#Cc1cccc(CN2CCC3(CC2)CC(c2ccncc2)C(=O)N3)c1 (stereo not drawn),-0.0024
17,COc1ccc2c(c1)C(C(=O)N(C)CCc1cnn(C)c1)CC(=O)N2 (stereo not drawn),-8.46
18,NC(=O)C(NCCc1ccc(Cl)s1)c1ccccc1 (stereo not drawn),-11.4
19,O=C(NCC1CC1)[C@H]1C[C@H]2OCC[C@H]2N(Cc2ccsc2)C1,-4.19
20,CCN1C(=O)CCC12CCN(S(=O)(=O)c1ccc(C#N)cc1)CC2,15.5
21,COC(=O)c1sc2nc3c(c(C(F)(F)F)c2c1N)CN(C(C)=O)CC3,5.62
22,CCOCCCNc1nc(CS(=O)(=O)c2ccccc2)cs1,-6.56
23,CCCOc1cc(C)c2c(c1C)C[C@H]([C@H](C)C(=O)O)CC2,-3.42

row,SMILES,cytotoxicity at 70.5 h [%]
1,COc1ccc2c(ccn2CCC(=O)/N=c2\[nH]nc(C3CCCO3)s2)c1 (stereo not drawn),-15.5
2,CC(OCC1CC1)C(=O)NCc1cccc(CN2CCCC2=O)c1 (stereo not drawn),1.05
3,Cc1ccc(C(CNCc2cccn2C)N2CCOCC2)s1 (stereo not drawn),-4.6
4,COc1ccc(-n2nc(C)c(C(C)=O)c2C)cc1CO,0.889
5,COc1cc(S(=O)(=O)N2CCc3cc(Br)ccc32)cc(C(=O)O)c1OC,-0.737
6,COc1ccc(CNCC2CN(C3CC3)CCO2)cc1OC (stereo not drawn),-7.17
7,CC(=O)N1CCCN(C(=O)c2ccc(Cn3ccccc3=O)o2)CC1,2.33
8,O=C(CN1C=Nc2ccccc2S1(=O)=O)NCCc1cccs1,1.55
9,O=C(c1cccnc1O)N1CCC2(CCCO2)CC1,-6.62
10,CCC(c1nc(C(C)C)nn1-c1ccccn1)n1cccn1 (stereo not drawn),17.2
11,COc1c(C(=O)N2CCNC(=O)C2)cnc2c1c(C)nn2C,21
12,OCC1(CC2CC2)CCCN(Cc2cnc(N3CCOCC3)nc2)C1 (stereo not drawn),-5.42
13,CCC(=O)N1CCC(Cc2nccnc2Nc2ccccn2)CC1,20.4
14,CS(=O)(=O)Nc1cccc(CNC(=O)CCC(=O)c2cccs2)c1,-3.24
15,Cc1ccc(NC2(C(=O)NCCCc3c(C)n[nH]c3C)CCCC2)cc1,-5.19
16,CCc1cnc(N)nc1N1CCCC2(CCOCC2)C1,-3.13
17,CN(C)C[C@]12COC[C@H]1CN(C(=O)Cc1ccc3c(c1)OCO3)C2,-9.79
18,Cc1cccnc1NC(=O)NC(CCO)C(C)(C)C (stereo not drawn),-2.8
19,O=C(NC1CCCC1)N1CCCC(c2nccn2Cc2ccncc2)C1 (stereo not drawn),0.665
20,O=C(Cc1ccc2c(c1)OCCO2)N1CCCC(n2ccnc2)C1 (stereo not drawn),18.8
21,CCCC(C#N)NC(=O)COC1CCCCC1 (stereo not drawn),6.33
22,Cc1nn(C)cc1C(=O)NC(CC(C)C)C(=O)Nc1cc[nH]n1 (stereo not drawn),12.6
23,O=C(C1CC2(CCNCC2)CN1)N1CCN(c2cccc(Cl)c2Cl)CC1 (stereo not drawn),-1.58

row,SMILES,cytotoxicity at 70.5 h [%]
1,CCCn1nccc1-c1cc(C2CCN(S(C)(=O)=O)CC2)nc(C)n1,-6.18
2,Cc1ccc2nc(C)cc(C(=O)N[C@H]3COC[C@@H]3N3CCOCC3)c2c1,-6.73
3,CC(C1CCN(Cc2ccc(OC(F)F)cc2)CC1)N1CCOCC1 (stereo not drawn),-17.4
4,COc1c(F)cc(CN2CCC3(CC2)CN(C)C(=O)O3)cc1Cl,-7.54
5,Cc1ccc(C(=O)N2CCCC(CNS(C)(=O)=O)C2)o1 (stereo not drawn),-7.3
6,CCOCc1ccc(NC(=O)N2CCOC3(CCC3)C2)cc1,-5.85
7,O=C(C[C@@H]1COC[C@H]2CN(Cc3ccccn3)C[C@@H]12)N1CCOCC1,-2.94
8,CCOc1ccc(NC(=O)c2ccc(C#N)cc2C)cc1CO,-1.73
9,O=C1CCCN1Cc1ncn2c1CN(C(=O)NC1CCCCC1)CCC2,27.2
10,Cc1cccnc1CN1CCCCC1c1ccn2ccnc2n1 (stereo not drawn),-4.81
11,CN(C)C(=O)[C@@H]1C[C@@H]2CCN(Cc3ccc4c(c3)OCO4)C[C@@H]2O1,1.53
12,Cc1nc[nH]c1CN1C[C@@H]2CC[C@H](C1)N(C(=O)CCn1cncn1)C2,-15
13,CCN1CCn2c(C)cnc2C12CCN(C(=O)COC)CC2,25
14,Cc1csc(N2CCCN(CCC(=O)NC(N)=O)CC2)n1,-1.42
15,CC(NCCn1cccn1)c1ccccc1F (stereo not drawn),-0.726
16,COc1ncccc1CN1CCN(c2noc(C(C)C)n2)CC1,3.17
17,Cc1cc(NC(=O)NCc2nncn2C)ccc1OC(C)C,22.5
18,CN1CCC(C(=O)N2CCCN(c3cccnn3)CC2)C1 (stereo not drawn),-14.6
19,CN1CCc2c(C#N)c(NCC3CCCO3)n3cnnc3c2C1 (stereo not drawn),-5.45
20,c1ccc(CN2CCC3(COCc4cnc(NCC5CC5)nc43)C2)cc1 (stereo not drawn),-3.62
21,CCN1CCN(C2CCN(CCOc3ccc(F)cc3)CC2)C1=O,-11.7
